# How the values were obtained:
# [1] = test system: stage III/IV non-small cell lung cancer; settings: phase II, monotherapy; cited from earlier work
# [2] = test system: acetylated histone H3 and histone H4 in U937 cells; test: Western blot of histone acetylation in U937 cells treated with HDACi; type: cell-based, human; settings: for levels of acetylated histone H3 and histone H4 by Western blot: treatment in vitro for 6-12 hours
# [3] = test system: histone acetylation in U-937 cells; test: Flow cytometry of histone acetylation (T52 staining) in U937 cells; type: cell-based, human; settings: 10 ng/ml for 4 hrs, untreated cells 90
# Method: Human U-937 cells were grown in RPMI-1640 medium supplemented with 10% Fetal Bovine Serum in standard culture conditions.
# Exponentially growing U-937 cells were treated for 4 hrs with 10 ng/ml Trichostatin A (TSA, Sigma Aldrich). After the treatment cells were washed with cold phosphate buffer saline (PBS), counted and fixed in 1% formaldehyde in PBS for 15 minutes. Fixed cells were then washed, resuspended in PBS, and stocked at 4° C.
# Histone acetylation analysis was performed according to the following procedure. Cells were fixed for 15 minutes in 1% formaldehyde in PBS. 1×10^6 cells/sample were washed with PBS+1% BSA and permeabilised with 200 μl of 0.1% Triton X100 in PBS for 10 min at room temperature (to allow for the antibody to reach acetylated nuclear proteins, such as histones). After washing with PBS+1% BSA pellets were incubated with 500 μl of 10% normal goat serum (NGS) in PBS for 20 min at 4° C. Histone acetylation levels were detected by incubation with T52 mouse monoclonal antibody (1 μg/ml in PBS+1% BSA). […]
# Flow cytometry analysis was performed using a FACScan flow cytometer (Becton Dickinson), acquiring at least 10,000 events/sample. The instrument was equipped with a bandpass 530/30 nm optical filter for FITC fluorescence detection (FL1 channel) and a 650 nm longpass optical filter in front of the PI (FL3) channel detector. […]
# [4] = test system: cells derived from "class A" (globally hypoacetylated) primary human breast tumors; test: Apoptosis of cultured primary breast tumor cells treated with HDAC inhibitors; type: cell-based; settings: cells from four class A tumors
# Method: (§1) To establish whether this classification may have additional correlations with tumor biology and potential influences on the choice of clinical therapeutic treatments, the sensitivity of tumor cells derived from “class A” or “class B” primary human breast tumors to various HDAC inhibitors was evaluated in vitro (FIG. 7-8). To investigate this further, cells derived from excision surgery of primary breast tumors were cultured (on which in parallel IHC using the T25 antibody was performed to establish the histone acetylation levels in vivo) following standard procedures (Elenbaas et al., 2001, Genes Dev 15, 50-65). After a few passages in culture (in the absence of fetal bovine serum, to eliminate contamination of fibroblasts), the cell population is greatly enriched in tumor cells. The bulk populations of cells derived from four “class A” and three “class B” tumors were then treated with VPA, or TSA (FIGS. 7-8). […] The immunohistochemical classification as described here, can therefore be used to predict the response of tumor cells to treatment with HDAC inhibitors and could thus be used for prognostic predictions whether a patient should be treated with such inhibitors.
# [5] = test system: cells derived from "class B" primary human breast tumors; test: as above; type: cell-based; settings: cells from three class B tumors
# Method: as §1
# [6] = test system: control-transduced (MCSV) primary tumor-derived cells; test: Sensitivity to HDAC inhibitor of transduced primary tumor-derived cell culture; type: cell-based; settings: high histone H4 acetylation
# [7] = test system: tumor cells transduced with HDAC/MTA constructs (HDAC-1, HDAC-2, MTA1); test: as above; type: cell-based; settings: histone hypoacetylation
# Method: An aliquot of the cells was collected, and Western blot analysis (using antibodies directed against acetylated histone H4) was performed on protein extracts prepared from these cells, to verify that overexpression of either HDAC, or of MTA1, led to a decrease in histone acetylation levels of the tumor cells.
# [8] = Plasmatic VPA concentration in treated patients; type: in vivo, human; settings: 10 to 30 mg/kg/day
# Method: HDAC inhibitors are currently being tested for their clinical use in tumor patients (Marks et al., 2001, Nat Rev Cancer 1, 194-202). Therefore, the inventors evaluated the response to valproic acid, VPA (a HDAC inhibitor currently in clinical trials for several forms of cancer), in blood samples of patients subjected to VPA treatment. Peripheral blood was collected periodically before/at various times of VPA treatment (10 to 30 mg/kg/day; plasmatic VPA concentration: 0,75 mM), mononuclear cells were isolated by Ficoll analysis and then analyzed as described. […] The histone acetylation level measured in blood cells may serve as marker to evaluate the efficacy of HDAC inhibitor treatment of patients suffering from tumors, including solid tumors, to further orientate the treatment schedule.
# [9] = test system: histone acetylation in peripheral blood mononuclear cells; test: Flow cytometry of histone acetylation in blood mononuclear cells of patients under VPA treatment; type: in vivo, human; settings: 10 to 30 mg/kg/day
# Method: Histone acetylation analysis was performed according to the following procedure. Cells were fixed for 15 minutes in 1% formaldehyde in PBS. 1×10^6 cells/sample were washed with PBS+1% BSA and permeabilised with 200 μl of 0.1% Triton X100 in PBS for 10 min at room temperature (to allow for the antibody to reach acetylated nuclear proteins, such as histones). After washing with PBS+1% BSA pellets were incubated with 500 μl of 10% normal goat serum (NGS) in PBS for 20 min at 4° C. Histone acetylation levels were detected by incubation with T52 mouse monoclonal antibody (1 μg/ml in PBS+1% BSA). Detection was performed by incubation with a fluorescein isothiocyanate (FITC)-conjugated affinity pure F(ab′)2 fragment of goat anti-mouse IgG (Sigma) for 1 h at room temperature in the dark.
# [10] = test system: acetylated histone H4 in U937 cells; test: Immunohistochemistry (T25) of U937 cells treated with HDACi; type: cell-based, human; settings: 12 hours, 1 mM, T25 antibody
# Method: To evaluate the specificity of the T25 antibody in immunohistochemistry (IHC), the inventors performed a preliminary test in an established cell line (U937 cells). […] Untreated cells, or cells treated for 12 hours with VPA (1 mM), were either processed for Western blot analysis (FIG. 3A), or fixed in formalin and then processed for immunohistochemistry (FIG. 1B). […] The T25 antibody can therefore be used for the analysis of histone acetylation levels by western blot analysis and immunohistochemistry (IHC).
# T-cell lymphomas = settings: phase II; cited from earlier work
smiles,measurement,setting,value
CCCC(=O)OCOC(=O)C(C)(C)C [Pivanex],clinical activity,[1],demonstrating activity
"CC(/C=C/C(=O)NO)=C\[C@@H](C)C(=O)c1ccc(N(C)C)cc1 [TSA, Trichostatin A]",acetylated histones H3 and H4 bands in Western blot,[2]; detection with T52 antibody (FIG. 9),greatly increased
same,levels of acetylated histone H3 and histone H4 by Western blot,[2],drastic increase
same,"mean fluorescence value (FL1-H), T52 staining",[3],450
same,apoptosis upon treatment with the HDAC inhibitors,[4],showed apoptosis
same,apoptosis upon treatment with the HDAC inhibitors,[5],totally resistant
same,sensitivity to treatment (apoptosis),[6],resistant
same,apoptosis,[7],up to 50%
"CCCC(CCC)C(=O)O [VPA, valproic acid]",levels of acetylated histone H3 and histone H4 by Western blot,[2],drastic increase
same,apoptosis upon treatment with the HDAC inhibitors,[4],showed apoptosis
same,apoptosis upon treatment with the HDAC inhibitors,[5],totally resistant
same,plasmatic VPA concentration,[8],"0,75 mM"
same,"Histone acetylation levels, increase",[9]; after 7-days of treatment (day 8),> 3 fold
same,Histone acetylation levels,[9]; day 28-35,further increased
same,acetylated histone H4 staining in immunohistochemistry,[10],increase in the intensity of staining and number of stained cell nuclei
C/C=C1\NC(=O)[C@H]2CSSCC/C=C/[C@H](CC(=O)N[C@H](C(C)C)C(=O)N2)OC(=O)[C@H](C(C)C)NC1=O [depsipeptide],clinical outcome,T-cell lymphomas,used successfully

# Reference: patent US7858329B2, “Antibody tools for the diagnostic use in the medical therapy with inhibitors of histone deacetylases” (TopoTarget Germany AG, priority 2002, dated 2010)
